By IC50 is commonly meant the point on the concentration scale where inhibition reaches its midpoint.

In this experiment the target is recombinant Plk1 (Homo sapiens, UniProt P53350). Put plainly: In Vitro Plk1 Enzyme Assay (SPA, GST-Cdc25C phosphorylation). The experiment is classed as biochemical. Conditions: ATP 64 nM, 90 minutes, read-out: IC50 (Plk1 enzyme inhibition).
Chain of recombinant Plk1 (P53350 whole entry): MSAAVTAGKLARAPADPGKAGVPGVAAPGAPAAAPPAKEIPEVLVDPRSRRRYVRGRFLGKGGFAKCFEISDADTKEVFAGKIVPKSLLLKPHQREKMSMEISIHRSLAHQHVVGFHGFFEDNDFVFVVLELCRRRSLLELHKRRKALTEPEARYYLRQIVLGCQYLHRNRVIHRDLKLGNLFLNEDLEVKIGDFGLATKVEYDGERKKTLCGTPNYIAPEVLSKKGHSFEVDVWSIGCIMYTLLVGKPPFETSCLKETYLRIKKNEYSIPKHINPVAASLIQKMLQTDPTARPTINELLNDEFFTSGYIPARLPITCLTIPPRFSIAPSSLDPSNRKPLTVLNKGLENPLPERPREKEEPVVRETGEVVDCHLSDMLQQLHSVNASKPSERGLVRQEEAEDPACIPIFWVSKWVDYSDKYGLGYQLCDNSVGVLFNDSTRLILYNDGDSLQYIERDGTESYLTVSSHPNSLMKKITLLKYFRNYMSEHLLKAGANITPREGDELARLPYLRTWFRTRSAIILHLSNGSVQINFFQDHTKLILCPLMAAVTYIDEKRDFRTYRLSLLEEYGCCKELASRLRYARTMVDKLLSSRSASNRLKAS
For `CCNS(=O)(=O)c1ccccc1Nc1ncc2c(n1)N(C1CCCC1)CCC(=O)N2C` [Example 154, 2-[(6-cyclopentyl-2-methyl-3-oxo-2,6,8,10-tetrazabicyclo[5.4.0]undeca-8,10,12-trien-9-yl)amino]-N-ethyl-benzenesulfonamide], the IC50 is less than 100 µM.

Consider `CNS(=O)(=O)c1ccccc1Nc1ncc2c(n1)N(C1CCCC1)CCC(=O)N2C` [Example 155, 2-[(6-cyclopentyl-2-methyl-3-oxo-2,6,8,10-tetrazabicyclo[5.4.0]undeca-8,10,12-trien-9-yl)amino]-N-methyl-benzenesulfonamide], for which the IC50 was less than 100 µM.

As for `CN1C(=O)CCN(C2CCCC2)c2nc(Nc3ccccc3NCCN3CCOCC3)ncc21` [Example 156, 6-cyclopentyl-2-methyl-9-[[2-(2-morpholin-4-ylethylamino)phenyl]amino]-2,6,8,10-tetrazabicyclo[5.4.0]undeca-8,10,12-trien-3-one], the IC50 is less than 100 µM.

With `CN1C(=O)CCN(C2CCCC2)c2nc(Nc3ccccc3Cc3ccccc3)ncc21` [Example 157, 9-[(2-benzylphenyl)amino]-6-cyclopentyl-2-methyl-2,6,8,10-tetrazabicyclo[5.4.0]undeca-8,10,12-trien-3-one], the IC50 is less than 100 µM.

`CN1C(=O)CCN(C2CCCC2)c2nc(Nc3ccccc3CN3CCOCC3)ncc21` [Example 160, 6-cyclopentyl-2-methyl-9-[[2-(morpholin-4-ylmethyl)phenyl]amino]-2,6,8,10-tetrazabicyclo[5.4.0]undeca-8,10,12-trien-3-one]: the IC50 was less than 100 µM.

Take `COc1cccc(Nc2ncc3c(n2)N(C2CCCC2)CCC(=O)N3C)c1` [Example 161, 6-cyclopentyl-9-[(3-methoxyphenyl)amino]-2-methyl-2,6,8,10-tetrazabicyclo[5.4.0]undeca-8,10,12-trien-3-one]: the IC50 was less than 1 µM.

On to `CCOc1cccc(Nc2ncc3c(n2)N(C2CCCC2)CCC(=O)N3C)c1` [Example 162, 6-cyclopentyl-9-[(3-ethoxyphenyl)amino]-2-methyl-2,6,8,10-tetrazabicyclo[5.4.0]undeca-8,10,12-trien-3-one], for which the 50% inhibitory concentration (IC50) was less than 1 µM.

Regarding `CSc1cccc(Nc2ncc3c(n2)N(C2CCCC2)CCC(=O)N3C)c1` [Example 163, 6-cyclopentyl-2-methyl-9-[(3-methylsulfanylphenyl)amino]-2,6,8,10-tetrazabicyclo[5.4.0]undeca-8,10,12-trien-3-one], the IC50 is less than 100 µM.

As to `CN1C(=O)CCN(C2CCCC2)c2nc(Nc3cccc(C#N)c3)ncc21` [Example 164, 3-[(6-cyclopentyl-2-methyl-3-oxo-2,6,8,10-tetrazabicyclo[5.4.0]undeca-8,10,12-trien-9-yl)amino]benzonitrile], the concentration for half-maximal inhibition (IC50) was less than 100 µM.

For the molecule `CCc1cccc(Nc2ncc3c(n2)N(C2CCCC2)CCC(=O)N3C)c1` [Example 166, 6-cyclopentyl-9-[(3-ethylphenyl)amino]-2-methyl-2,6,8,10-tetrazabicyclo[5.4.0]undeca-8,10,12-trien-3-one], the half-inhibitory concentration (IC50) was less than 100 µM.

For the molecule `C#Cc1cccc(Nc2ncc3c(n2)N(C2CCCC2)CCC(=O)N3C)c1` [Example 168, 6-cyclopentyl-9-[(3-ethynylphenyl)amino]-2-methyl-2,6,8,10-tetrazabicyclo[5.4.0]undeca-8,10,12-trien-3-one], the IC50 is less than 100 µM.

In the case of `CN1C(=O)CCN(C2CCCC2)c2nc(Nc3cccc(C(=O)c4ccccc4)c3)ncc21` [Example 169, 9-[(3-benzoylphenyl)amino]-6-cyclopentyl-2-methyl-2,6,8,10-tetrazabicyclo[5.4.0]undeca-8,10,12-trien-3-one], the IC50 was less than 100 µM.

As to `CN1C(=O)CCN(C2CCCC2)c2nc(Nc3cccc(S(C)(=O)=O)c3)ncc21` [Example 172, 6-cyclopentyl-2-methyl-9-[(3-methylsulfonylphenyl)amino]-2,6,8,10-tetrazabicyclo[5.4.0]undeca-8,10,12-trien-3-one], the half-maximal inhibitory concentration (IC50) was less than 100 µM.

Consider `CC(C)c1cccc(Nc2ncc3c(n2)N(C2CCCC2)CCC(=O)N3C)c1` [Example 174, 6-cyclopentyl-2-methyl-9-[(3-propan-2-ylphenyl)amino]-2,6,8,10-tetrazabicyclo[5.4.0]undeca-8,10,12-trien-3-one], for which the IC50 was less than 100 µM.

As for `CN1C(=O)CCN(C2CCCC2)c2nc(Nc3cccc(S(=O)(=O)N4CCOCC4)c3)ncc21` [Example 183, 6-cyclopentyl-2-methyl-9-[(3-morpholin-4-ylsulfonylphenyl)amino]-2,6,8,10-tetrazabicyclo[5.4.0]undeca-8,10,12-trien-3-one], the IC50 is less than 100 µM.

With `CNC(=O)c1ccc(Nc2ncc3c(n2)N(C2CCCC2)CCC(=O)N3C)c(OCCOC)c1` [Example 196, 4-[(6-cyclopentyl-2-methyl-3-oxo-2,6,8,10-tetrazabicyclo[5.4.0]undeca-8,10,12-trien-9-yl)amino]-3-(2-methoxyethoxy)-N-methyl-benzamide], the IC50 was less than 1 µM.

Take `COc1cc(C(=O)NC2CCN(C)CC2)ccc1Nc1ncc2c(n1)N(CC(C)C)CCC(=O)N2C` [Example 211, 3-methoxy-4-[[2-methyl-6-(2-methylpropyl)-3-oxo-2,6,8,10-tetrazabicyclo[5.4.0]undeca-7,9,11-trien-9-yl]amino]-N-(1-methyl-4-piperidyl)benzamide]: the half-inhibitory concentration (IC50) was less than 0.3 µM.

As for `COc1cc(C(=O)NC2CCN(C)CC2)ccc1Nc1ncc2c(n1)N(Cc1csc(C)n1)CCC(=O)N2C` [Example 216, 3-methoxy-4-[[2-methyl-6-[(2-methyl1,3-thiazol-4-yl)methyl]-3-oxo-2,6,8,10-tetrazabicyclo[5.4.0]undeca-7,9,11-trien-9-yl]amino]-N-(1-methyl-4-piperidyl)benzamide], the IC50 was less than 1 µM.

Turning to `CC(C)N1CCC(=O)N(C)c2cnc(Nc3ccc(C(=O)NCC(C)(C)CN(C)C)cc3)nc21` [Example 222, N-(3-dimethylamino-2,2-dimethyl-propyl)-4-[(2-methyl-3-oxo-6-propan-2-yl-2,6,8,10-tetrazabicyclo[5.4.0]undeca-7,9,11-trien-9-yl)amino]benzamide], the 50% inhibitory concentration (IC50) is less than 0.3 µM.

Consider `CN(C)CC(C)(C)CNC(=O)c1ccc(Nc2ncc3c(n2)N(c2ccccc2)CCC(=O)N3C)c(Cl)c1` [Example 225, 3-chloro-N-(3-dimethylamino-2,2-dimethyl-propyl)-4-[(2-methyl-3-oxo-6-phenyl-2,6,8,10-tetrazabicyclo[5.4.0]undeca-8,10,12-trien-9-yl)amino]benzamide], for which the IC50 is less than 1 µM.

For `CN1C(=O)CCN(c2ccccc2)c2nc(Nc3ccc(C(=O)NCCN4CCOCC4)cc3Cl)ncc21` [Example 226, 3-chloro-4-[(2-methyl-3-oxo-6-phenyl-2,6,8,10-tetrazabicyclo[5.4.0]undeca-8,10,12-trien-9-yl)amino]-N-(2-morpholin-4-ylethyl)benzamide], the 50% inhibitory concentration (IC50) is less than 1 µM.

Take `O=C1CCN(c2ccccc2)c2nc(Nc3ccc(C(=O)NCCN4CCOCC4)cc3Cl)ncc2N1` [Example 247, 3-chloro-N-(2-morpholin-4-ylethyl)-4-[(3-oxo-6-phenyl-2,6,8,10-tetrazabicyclo[5.4.0]undeca-7,9,11-trien-9-yl)amino]benzamide]: the 50% inhibitory concentration (IC50) is less than 100 µM.

`O=C1CCN(c2ccccc2)c2nc(Nc3ccc(C(=O)NCCN4CCOCC4)cc3)ncc2N1` [Example 249, N-(2-morpholin-4-ylethyl)-4-[(3-oxo-6-phenyl-2,6,8,10-tetrazabicyclo[5.4.0]undeca-7,9,11-trien-9-yl)amino]benzamide]: the IC50 is less than 100 µM.

For the molecule `COc1cc(C(=O)NCCN2CCOCC2)ccc1Nc1ncc2c(n1)N(C1CCCC1)CCC(=O)N2` [Example 250, 4-[(6-cyclopentyl-3-oxo-2,6,8,10-tetrazabicyclo[5.4.0]undeca-8,10,12-trien-9-yl)amino]-3-methoxy-N-(2-morpholin-4-ylethyl)benzamide], the IC50 was less than 1 µM.

As to `COc1cc(C(=O)NC2CCN(C)CC2)ccc1Nc1ncc2c(n1)N(c1ccccc1)CCC(=O)N2` [Example 251, 3-methoxy-N-(1-methyl-4-piperidyl)-4-[(3-oxo-6-phenyl-2,6,8,10-tetrazabicyclo[5.4.0]undeca-8,10,12-trien-9-yl)amino]benzamide], the IC50 was less than 100 µM.

Consider `CN1CCC(NC(=O)c2ccc(Nc3ncc4c(n3)N(C3CCCC3)CCC(=O)N4)cc2)CC1` [Example 254, 4-[(6-cyclopentyl-3-oxo-2,6,8,10-tetrazabicyclo[5.4.0]undeca-8,10,12-trien-9-yl)amino]-N-(1-methyl-4-piperidyl)benzamide], for which the half-inhibitory concentration (IC50) was less than 100 µM.

As for `CN(C)CC(C)(C)CNC(=O)c1ccc(Nc2ncc3c(n2)N(C2CCCC2)CCC(=O)N3)c(Cl)c1` [Example 255, 3-chloro-4-[(6-cyclopentyl-3-oxo-2,6,8,10-tetrazabicyclo[5.4.0]undeca-8,10,12-trien-9-yl)amino]-N-(3-dimethylamino-2,2-dimethyl-propyl)benzamide], the half-inhibitory concentration (IC50) was less than 100 µM.

On to `COCC(C)N1CCC(=O)Nc2cnc(Nc3ccc(C(=O)NC4CCN(C)CC4)cc3OC)nc21` (stereo not drawn) [Example 258, 3-methoxy-4-[[6-(1-methoxypropan-2-yl)-3-oxo-2,6,8,10-tetrazabicyclo[5.4.0]undeca-7,9,11-trien-9-yl]amino]-N-(1-methyl-4-piperidyl)benzamide], for which the IC50 is less than 100 µM.

Consider `CCN1C(=O)CCN(C2CCCC2)c2nc(Nc3ccc(C(=O)NC4CCN(C)CC4)cc3OC)ncc21` [Example 259, 4-[(6-cyclopentyl-2-ethyl-3-oxo-2,6,8,10-tetrazabicyclo[5.4.0]undeca-8,10,12-trien-9-yl)amino]-3-methoxy-N-(1-methyl-4-piperidyl)benzamide], for which the IC50 was less than 1 µM.

Consider `CN1CCC(NC(=O)c2csc(Nc3ncc4c(n3)N(C3CCCC3)CCC(=O)N4C)n2)CC1` [Example 261, 2-[(6-cyclopentyl-2-methyl-3-oxo-2,6,8,10-tetrazabicyclo[5.4.0]undeca-8,10,12-trien-9-yl)amino]-N-(1-methyl-4-piperidyl)1,3-thiazole-4-carboxamide], for which the IC50 was less than 100 µM.

The record behind these values is patent US7709471B2, “Compounds” (AstraZeneca AB, priority 2006, dated 2010).
